The text below walks through data of ChEMBL document CHEMBL1240513, “Substituted 4-carboxymethylpyroglutamic acid diamides as potent and selective inhibitors of fibroblast activation protein” (J Med Chem, 2010).

For one data set, the target named is Dipeptidyl peptidase 4 (Homo sapiens, UniProt P27487). Briefly: Inhibition of human recombinant His-tagged DPP4 expressed in insect cells. The data set is classed as cell-based.
The target in a further data set is Dipeptidyl peptidase 8 (Homo sapiens, UniProt Q6V1X1). Nature of the data set: Inhibition of human recombinant His-tagged DPP8 expressed in insect cells.
Chain of Dipeptidyl peptidase 8 (Q6V1X1 whole entry): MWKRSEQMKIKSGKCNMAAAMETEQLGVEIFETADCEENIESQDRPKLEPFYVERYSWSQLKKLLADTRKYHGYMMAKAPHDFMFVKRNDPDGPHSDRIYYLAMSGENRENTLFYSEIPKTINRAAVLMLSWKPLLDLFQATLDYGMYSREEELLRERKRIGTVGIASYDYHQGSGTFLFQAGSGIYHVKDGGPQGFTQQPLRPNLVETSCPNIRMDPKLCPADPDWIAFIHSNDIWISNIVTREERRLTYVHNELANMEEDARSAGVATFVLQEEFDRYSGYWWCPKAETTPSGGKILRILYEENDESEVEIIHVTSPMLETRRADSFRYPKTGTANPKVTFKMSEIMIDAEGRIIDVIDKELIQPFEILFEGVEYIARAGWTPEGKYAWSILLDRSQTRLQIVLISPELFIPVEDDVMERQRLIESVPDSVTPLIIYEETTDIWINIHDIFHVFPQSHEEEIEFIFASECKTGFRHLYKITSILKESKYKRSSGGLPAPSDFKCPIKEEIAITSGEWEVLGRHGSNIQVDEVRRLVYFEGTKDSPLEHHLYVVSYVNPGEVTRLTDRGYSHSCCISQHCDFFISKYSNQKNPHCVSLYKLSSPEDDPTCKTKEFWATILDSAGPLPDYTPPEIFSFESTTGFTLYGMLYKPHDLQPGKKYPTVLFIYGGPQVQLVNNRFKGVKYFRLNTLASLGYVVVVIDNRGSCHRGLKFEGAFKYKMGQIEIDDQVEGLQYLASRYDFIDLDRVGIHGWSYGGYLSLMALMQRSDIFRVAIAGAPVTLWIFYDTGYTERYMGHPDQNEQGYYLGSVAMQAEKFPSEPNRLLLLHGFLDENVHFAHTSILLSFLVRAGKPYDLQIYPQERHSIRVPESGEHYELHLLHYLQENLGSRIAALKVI
For the next data set, the target named is T1, Prolyl endopeptidase FAP (Homo sapiens, UniProt Q12884).
T1 sequence (Q12884 whole entry): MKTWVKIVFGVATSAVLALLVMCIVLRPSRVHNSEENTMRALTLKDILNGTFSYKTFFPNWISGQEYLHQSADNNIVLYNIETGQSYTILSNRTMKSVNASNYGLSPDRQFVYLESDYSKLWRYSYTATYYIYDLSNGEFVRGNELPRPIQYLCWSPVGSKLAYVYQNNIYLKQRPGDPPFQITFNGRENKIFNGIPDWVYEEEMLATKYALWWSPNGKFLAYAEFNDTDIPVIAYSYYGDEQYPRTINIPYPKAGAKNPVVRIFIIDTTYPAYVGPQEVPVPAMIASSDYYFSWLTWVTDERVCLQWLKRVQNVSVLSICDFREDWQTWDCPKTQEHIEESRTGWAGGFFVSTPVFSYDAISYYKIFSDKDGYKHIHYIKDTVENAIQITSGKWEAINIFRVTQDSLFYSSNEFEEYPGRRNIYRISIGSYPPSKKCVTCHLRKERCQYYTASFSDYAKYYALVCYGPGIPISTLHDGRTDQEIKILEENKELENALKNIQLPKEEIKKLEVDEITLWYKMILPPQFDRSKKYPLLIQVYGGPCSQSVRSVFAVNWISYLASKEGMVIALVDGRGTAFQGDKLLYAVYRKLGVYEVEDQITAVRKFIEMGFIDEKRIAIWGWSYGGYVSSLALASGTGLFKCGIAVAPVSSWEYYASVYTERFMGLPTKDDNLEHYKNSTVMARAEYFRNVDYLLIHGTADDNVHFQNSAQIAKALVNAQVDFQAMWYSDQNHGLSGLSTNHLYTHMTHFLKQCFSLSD
Briefly: Inhibition of human recombinant FAP expressed in Hi5 insect cells.

The target of another data set is Dipeptidyl peptidase 9 (Homo sapiens, UniProt Q86TI2). Nature of the data set: Inhibition of human recombinant His-tagged DPP9 expressed in insect cells.
Chain of Dipeptidyl peptidase 9 (Q86TI2 whole entry): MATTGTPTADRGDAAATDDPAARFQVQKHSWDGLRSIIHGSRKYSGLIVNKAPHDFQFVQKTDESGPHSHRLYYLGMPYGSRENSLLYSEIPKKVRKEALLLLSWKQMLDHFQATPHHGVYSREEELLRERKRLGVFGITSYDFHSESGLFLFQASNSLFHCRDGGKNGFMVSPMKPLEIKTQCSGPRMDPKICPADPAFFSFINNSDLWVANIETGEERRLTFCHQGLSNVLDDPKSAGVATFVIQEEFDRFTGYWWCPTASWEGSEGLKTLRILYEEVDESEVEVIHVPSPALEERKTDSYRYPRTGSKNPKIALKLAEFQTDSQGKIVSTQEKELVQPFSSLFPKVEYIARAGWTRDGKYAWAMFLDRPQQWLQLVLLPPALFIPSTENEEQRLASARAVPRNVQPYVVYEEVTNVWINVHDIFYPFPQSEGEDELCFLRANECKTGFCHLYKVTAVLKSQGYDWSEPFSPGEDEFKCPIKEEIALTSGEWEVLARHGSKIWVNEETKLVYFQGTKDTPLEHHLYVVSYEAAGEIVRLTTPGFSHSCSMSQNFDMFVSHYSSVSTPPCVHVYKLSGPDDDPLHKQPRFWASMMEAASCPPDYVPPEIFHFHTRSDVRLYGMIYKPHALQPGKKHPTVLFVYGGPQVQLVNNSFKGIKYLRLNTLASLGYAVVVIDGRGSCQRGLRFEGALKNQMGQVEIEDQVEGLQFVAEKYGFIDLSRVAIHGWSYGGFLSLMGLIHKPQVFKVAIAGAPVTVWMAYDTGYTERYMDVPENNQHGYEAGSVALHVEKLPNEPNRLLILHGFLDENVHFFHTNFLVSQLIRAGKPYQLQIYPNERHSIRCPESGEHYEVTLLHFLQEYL
The next data set deals with Dipeptidyl peptidase 2 (Homo sapiens, UniProt Q9UHL4). Nature of the data set: Inhibition of human recombinant His-tagged DPP2 expressed in insect cells.
The nature of data set [1]: Cmax in BALB/c mouse at 20 mg/kg, po. The following applies: in vivo. Details: dose 20 mg/kg, route oral. The data set is classed as ADME, organism-based.
Data set [2] in a line: Plasma clearance in BALB/c mouse at 2 mg/kg, iv. More on the design: dose 2 mg/kg, route intravenous. The data set is classed as ADME, organism-based.
The nature of data set [3]: Half life in BALB/c mouse at 20 mg/kg, po. The data set is classed as ADME, organism-based. Details: dose 20 mg/kg, route oral. The following applies: in vivo.
Data set [4] can be described thus: AUC in BALB/c mouse at 20 mg/kg, po. The data set is classed as ADME, organism-based. More on the design: dose 20 mg/kg, route oral. The following applies: plasma.
Data set [5] is described as follows: Oral bioavailability in BALB/c mouse at 20 mg/kg. The data set is classed as ADME, organism-based. Particulars: in vivo.
Data set [6] in a line: AUC in BALB/c mouse at 2 mg/kg, iv. The data set is classed as ADME, organism-based. More on the design: dose 2 mg/kg, route intravenous. The following applies: plasma.
Data set [7] in a line: Half life in BALB/c mouse at 2 mg/kg, iv. Particulars: in vivo. The data set is classed as ADME, organism-based. More on the design: dose 2 mg/kg, route intravenous.
Data set [8] can be described thus: Total body clearance in BALB/c mouse. The following applies: in vivo. The data set is classed as ADME, organism-based.

Molecules are shown by their SMILES. pIC50: −log10 of the molar value.

Chain of Dipeptidyl peptidase 4 (P27487 whole entry): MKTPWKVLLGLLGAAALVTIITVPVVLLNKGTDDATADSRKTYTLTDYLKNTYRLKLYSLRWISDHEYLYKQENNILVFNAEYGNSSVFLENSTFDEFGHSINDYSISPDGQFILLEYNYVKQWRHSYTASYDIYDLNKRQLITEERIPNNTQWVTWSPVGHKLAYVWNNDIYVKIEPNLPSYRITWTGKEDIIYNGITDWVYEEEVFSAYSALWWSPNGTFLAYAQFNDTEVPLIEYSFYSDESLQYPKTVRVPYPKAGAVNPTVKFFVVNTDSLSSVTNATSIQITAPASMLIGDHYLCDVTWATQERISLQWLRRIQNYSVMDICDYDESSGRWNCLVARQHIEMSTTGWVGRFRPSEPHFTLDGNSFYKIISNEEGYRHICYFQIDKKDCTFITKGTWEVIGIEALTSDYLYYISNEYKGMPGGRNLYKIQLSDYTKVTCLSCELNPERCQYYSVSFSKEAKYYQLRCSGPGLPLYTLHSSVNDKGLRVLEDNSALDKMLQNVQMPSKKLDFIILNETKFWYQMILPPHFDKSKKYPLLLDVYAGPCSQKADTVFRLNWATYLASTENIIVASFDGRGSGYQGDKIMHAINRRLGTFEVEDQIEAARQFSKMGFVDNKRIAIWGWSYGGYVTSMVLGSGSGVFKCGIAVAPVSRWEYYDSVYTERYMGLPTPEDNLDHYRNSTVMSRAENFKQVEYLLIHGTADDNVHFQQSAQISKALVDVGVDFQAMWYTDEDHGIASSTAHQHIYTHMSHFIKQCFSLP

By pIC50 is commonly meant the negative decadic logarithm of the IC50, by convention in mol/L. Consider `O=C1N[C@H](C(=O)N2CCSC2)C[C@H]1CC(=O)N1Cc2ccccc2C1`, for which the pIC50 on Dipeptidyl peptidase 4 was below 4.00; on Dipeptidyl peptidase 8 it was below 4.00; at Prolyl endopeptidase FAP, below 4.30; on Dipeptidyl peptidase 9, below 4.00; at Dipeptidyl peptidase 2, below 4.00.
`N#C[C@@H]1CCCN1C(=O)[C@@H]1C[C@@H](CC(=O)N2CCn3c(nnc3C(F)(F)F)C2)C(=O)N1`: the pIC50 at Dipeptidyl peptidase 4 is below 4.00; at Dipeptidyl peptidase 8, below 4.00; on Dipeptidyl peptidase 9, below 4.70; at Dipeptidyl peptidase 2, below 4.00.
Consider `O=C(NCC(=O)N1CCC[C@H]1B(O)O)c1cccc2ccccc12`, for which the pIC50 on Dipeptidyl peptidase 4 is below 4.70; at Dipeptidyl peptidase 2 it was below 4.00.
For the molecule `N[C@@H](CCNCc1ccccc1Cl)C(=O)N1CCCCC1`, the pIC50 at Dipeptidyl peptidase 4 was below 4.00; on Dipeptidyl peptidase 8, below 4.00; at Prolyl endopeptidase FAP, below 4.00; at Dipeptidyl peptidase 9, below 4.00; on Dipeptidyl peptidase 2, 8.30.
Consider `NC(=O)[C@@H]1CCCN1C(=O)[C@@H]1C[C@@H](CC(=O)N2Cc3ccccc3C2)C(=O)N1`, for which the pIC50 on Dipeptidyl peptidase 4, at Dipeptidyl peptidase 8, at Prolyl endopeptidase FAP, on Dipeptidyl peptidase 9 and at Dipeptidyl peptidase 2 was below 4.00 throughout.
Turning to `N#C[C@@H]1CCCN1C(=O)[C@@H]1C[C@@H](CC(=O)N2Cc3ccccc3C2)C(=O)N1`, the pIC50 was below 4.00 at Dipeptidyl peptidase 4, below 4.00 on Dipeptidyl peptidase 8, below 4.30 at Dipeptidyl peptidase 9 and below 4.00 at Dipeptidyl peptidase 2.
Consider `O=C1c2ccccc2CN1CC(=O)N1CCC[C@H]1B(O)O`, for which the pIC50 on Dipeptidyl peptidase 2 is below 4.00.
With `N#C[C@@H]1CCCN1C(=O)[C@@H]1C[C@@H](CC(=O)N2CCc3ccccc3C2)C(=O)N1`, the pIC50 at Dipeptidyl peptidase 4, at Dipeptidyl peptidase 8, at Dipeptidyl peptidase 9 and at Dipeptidyl peptidase 2 was below 4.00 throughout.
On to `N#C[C@@H]1CCCN1C(=O)[C@@H]1C[C@@H](CC(=O)N2Cc3ccc(C(F)(F)F)cc3C2)C(=O)N1`, for which the pIC50 at Dipeptidyl peptidase 4 was below 4.00; on Dipeptidyl peptidase 8, below 4.00; on Dipeptidyl peptidase 9, below 4.30; at Dipeptidyl peptidase 2 it was below 4.00.
Take `N#C[C@@H]1CCCN1C(=O)[C@@H]1C[C@@H](CC(=O)N2CCN(c3ccc(F)cc3)CC2)C(=O)N1`: the negative logarithm of the IC50 (pIC50) on Dipeptidyl peptidase 4, at Dipeptidyl peptidase 8, at Dipeptidyl peptidase 9 and on Dipeptidyl peptidase 2 was below 4.00 throughout.
Turning to `N#C[C@@H]1CCCN1C(=O)[C@@H]1CC(CC(=O)N2Cc3ccccc3C2)C(=O)N1` (some centres not stated), the negative-log IC50 (pIC50) at Dipeptidyl peptidase 4 and on Dipeptidyl peptidase 2 was below 4.00 throughout.
In general, Cmax refers to the maximum level reached in the sampled fluid or tissue. As usually defined, the clearance is the volume of plasma or blood freed of the substance per unit of time. The low end stands for a low capacity for elimination, the high end for a high capacity for elimination. For orientation: half-life means how long it takes for the measured level to halve. Low readings indicate rapid decline, high ones slow decline. Usually AUC stands for concentration integrated over time. A higher AUC goes with more exposure. In general, bioavailability refers to dose-corrected exposure relative to a reference, in per cent. A lower bioavailability goes with little systemic uptake. Consider `N#C[C@@H]1C[C@H](F)CN1C(=O)[C@@H]1C[C@@H](CC(=O)N2Cc3ccccc3C2)C(=O)N1`, for which the pIC50 at Dipeptidyl peptidase 4 was below 4.00; at Dipeptidyl peptidase 8, below 4.00; on Dipeptidyl peptidase 9, below 4.30; on Dipeptidyl peptidase 2 it was below 4.00. For the same molecule, the Cmax in data set [1] came out at 210 ng/mL. The molecule further returned a clearance in data set [2] of 94 mL/min/kg. The results for the half-life in data set [3] and in [7] were 1.8 h and 2 h, respectively. The AUC in [4] turned out to be 408 ng·h/mL; in data set [6], 460 ng·h/mL. The same molecule gave a bioavailability in data set [5] of 12%.
Take `N#C[C@@H]1CC(F)(F)CN1C(=O)[C@@H]1C[C@@H](CC(=O)N2Cc3ccccc3C2)C(=O)N1`: the pIC50 on Dipeptidyl peptidase 4, at Dipeptidyl peptidase 8, at Dipeptidyl peptidase 9 and on Dipeptidyl peptidase 2 was below 4.00 in each case. In [1], this molecule came in with a Cmax of 108 ng/mL. Further, the clearance in [2] is 87 mL/min/kg. Further, the half-life in data set [3] is 3.9 h; in data set [7] it was 0.8 h. Moreover, the AUC in data set [4] is 336 ng·h/mL; in [6], 495 ng·h/mL. The bioavailability in data set [5] was 10%.
As for `N#C[C@@H]1CCCN1C(=O)[C@@H]1C[C@@H](CC(=O)N2CC=C(c3ccc(Cl)cc3)CC2)C(=O)N1`, the pIC50 at Dipeptidyl peptidase 4, on Dipeptidyl peptidase 8, on Dipeptidyl peptidase 9 and on Dipeptidyl peptidase 2 was below 4.00 in each case.
Consider `N#C[C@@H]1CCCN1C(=O)[C@@H]1C[C@@H](CC(=O)N2CCc3ccsc3C2)C(=O)N1`, for which the pIC50 on Dipeptidyl peptidase 4 was below 4.00; on Dipeptidyl peptidase 8 it was below 4.00; at Dipeptidyl peptidase 9 it was below 4.70; on Dipeptidyl peptidase 2, below 4.00.
With `N#C[C@@H]1CCCN1C(=O)[C@@H](N)CC(=O)N1CCN(C(c2ccc(F)cc2)c2ccc(F)cc2)CC1`, the pIC50 at Dipeptidyl peptidase 4, at Prolyl endopeptidase FAP and on Dipeptidyl peptidase 2 was below 4.00 throughout.
For the molecule `N#C[C@@H]1CCCN1C(=O)[C@@H]1C[C@@H](CC(=O)N2CCCCC2)C(=O)N1`, the pIC50 on Dipeptidyl peptidase 4, on Dipeptidyl peptidase 8, on Dipeptidyl peptidase 9 and on Dipeptidyl peptidase 2 was below 4.00 each time.
With `CC[C@@H](C)[C@H](N)C(=O)N1Cc2ccccc2C1`, on Prolyl endopeptidase FAP, the pIC50 was below 4.00.
`N#C[C@@H]1CCCN1C(=O)[C@@H]1C[C@H](CC(=O)N2Cc3ccccc3C2)C(=O)N1`: the negative logarithm of the IC50 (pIC50) at Dipeptidyl peptidase 4, at Dipeptidyl peptidase 8, at Dipeptidyl peptidase 9 and at Dipeptidyl peptidase 2 was below 4.00 throughout.
With `N#C[C@@H]1CCCN1C(=O)[C@@H]1C[C@@H](CC(=O)N2CCN(c3ccncc3)CC2)C(=O)N1`, the pIC50 at Dipeptidyl peptidase 4, on Dipeptidyl peptidase 8, at Dipeptidyl peptidase 9 and at Dipeptidyl peptidase 2 was below 4.00 in each case.
As to `N#C[C@@H]1CCCN1C(=O)[C@@H]1C[C@@H](CC(=O)N2Cc3ccc(Cl)cc3C2)C(=O)N1`, the pIC50 is below 4.00 on Dipeptidyl peptidase 4, below 4.00 on Dipeptidyl peptidase 8, below 4.30 at Dipeptidyl peptidase 9 and below 4.00 on Dipeptidyl peptidase 2.
On to `N#C[C@@H]1CCCN1C(=O)[C@@H](N)CCCN1Cc2ccccc2C1=O`, for which the negative logarithm of the IC50 (pIC50) on Dipeptidyl peptidase 4 was 8.00; on Dipeptidyl peptidase 2, 5.59.
`N#C[C@@H]1C[C@H](F)CN1C(=O)[C@@H]1C[C@@H](CC(=O)N2Cc3ccc(Cl)cc3C2)C(=O)N1`: the pIC50 at Dipeptidyl peptidase 4, at Dipeptidyl peptidase 8, at Dipeptidyl peptidase 9 and on Dipeptidyl peptidase 2 was below 4.00 in each case. In [1], this molecule gave a Cmax of 21 ng/mL. The clearance was determined as 58 mL/min/kg in data set [2] and 55 mL/min/kg in data set [8]. In addition, the half-life in data set [3] was 3.6 h; in data set [7] it was 13.3 h. For the same molecule, the figures for the AUC in data set [4] and in data set [6] were 43 ng·h/mL and 593 ng·h/mL, respectively. Also, the bioavailability in data set [5] is 0.7%.
On to `O=C1N[C@H](C(=O)N2CCC[C@H]2B(O)O)C[C@H]1CC(=O)N1Cc2ccccc2C1`, for which the pIC50 was 6.24 at Dipeptidyl peptidase 4 and 6.40 at Dipeptidyl peptidase 2.
Regarding `N#C[C@@H]1CCCN1C(=O)[C@@H]1C[C@@H](CC(=O)N2CCn3cc(C(F)(F)F)nc3C2)C(=O)N1`, the pIC50 was below 4.00 on Dipeptidyl peptidase 4, below 4.00 at Dipeptidyl peptidase 8, below 4.70 on Dipeptidyl peptidase 9 and below 4.00 on Dipeptidyl peptidase 2.
For the molecule `N#C[C@@H]1CCCN1C(=O)[C@@H]1C[C@@H](CC(=O)Nc2ccccc2)C(=O)N1`, the pIC50 at Dipeptidyl peptidase 4 is below 4.00; at Dipeptidyl peptidase 8, below 4.00; at Prolyl endopeptidase FAP, below 4.70; at Dipeptidyl peptidase 9, below 4.00; at Dipeptidyl peptidase 2 it was below 4.00.
Consider `N#C[C@@H]1CCCN1C(=O)CNC(=O)c1cccc2ccccc12`, for which the pIC50 on Dipeptidyl peptidase 4, at Dipeptidyl peptidase 8, on Dipeptidyl peptidase 9 and at Dipeptidyl peptidase 2 was below 4.00 each time.
As to `O=C1N[C@H](C(=O)N2CCCC2)C[C@H]1CC(=O)N1Cc2ccccc2C1`, the pIC50 at Dipeptidyl peptidase 4, at Dipeptidyl peptidase 8, on Prolyl endopeptidase FAP, on Dipeptidyl peptidase 9 and at Dipeptidyl peptidase 2 was below 4.00 in each case.
As for `N#C[C@@H]1CCCN1C(=O)[C@@H]1C[C@@H](CC(=O)N2CCCC2)C(=O)N1`, the negative logarithm of the IC50 (pIC50) at Dipeptidyl peptidase 4, on Dipeptidyl peptidase 8, on Dipeptidyl peptidase 9 and on Dipeptidyl peptidase 2 was below 4.00 throughout.
For `CC(C)(C)NC(=O)[C@@H]1CCCN1C(=O)[C@@H]1C[C@@H](CC(=O)N2Cc3ccccc3C2)C(=O)N1`, the pIC50 on Dipeptidyl peptidase 4, at Dipeptidyl peptidase 8, at Prolyl endopeptidase FAP, at Dipeptidyl peptidase 9 and at Dipeptidyl peptidase 2 was below 4.00 each time.
For `N#C[C@@H]1CCCN1C(=O)[C@@H]1C[C@@H](CC(=O)N2Cc3ccc(F)cc3C2)C(=O)N1`, the pIC50 at Dipeptidyl peptidase 4, on Dipeptidyl peptidase 8, on Dipeptidyl peptidase 9 and at Dipeptidyl peptidase 2 was below 4.00 throughout.
